The results in this text go back to patent publication US11491165B2 (Kinoxis Therapeutics Pty Ltd, priority 2016, dated 2022).

The target of data set [1] is T1, oxytocin receptor (OXTR), hOTR (Homo sapiens, UniProt P30559).
T1 construct: expressed in transfected cells
T1 sequence (P30559 1-389): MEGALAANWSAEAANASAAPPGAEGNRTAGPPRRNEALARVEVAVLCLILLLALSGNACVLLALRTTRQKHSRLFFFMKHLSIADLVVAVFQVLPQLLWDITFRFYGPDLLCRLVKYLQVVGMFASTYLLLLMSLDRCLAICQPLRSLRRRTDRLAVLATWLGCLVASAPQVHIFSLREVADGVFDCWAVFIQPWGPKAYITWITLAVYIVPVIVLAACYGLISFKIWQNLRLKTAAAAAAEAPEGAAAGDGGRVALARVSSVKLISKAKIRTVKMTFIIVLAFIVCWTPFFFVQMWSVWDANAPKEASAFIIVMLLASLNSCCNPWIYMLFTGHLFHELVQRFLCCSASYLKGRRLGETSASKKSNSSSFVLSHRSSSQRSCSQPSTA
The data set is described as follows: Competition radioligand binding, [3H]-oxytocin, OTR-expressing HEK293 membranes. As to conditions: [3H]-oxytocin 10 nM, 90 min 4 °C. On the procedure: (§1) Human embryonic kidney cells (HEK-293) transfected to stably express untagged hOTR and V1aR using the Flp-In™ T-REx™ system (Life Technologies, Carlsbad, Calif. USA) were established as reported in Jorgensen et al., 2016 (the entire disclosure of which is hereby incorporated by reference). Cells were subsequently maintained in 10% DMEM containing hygromycin (80 μg/ml), penicillin (100 U/ml), streptomycin (0.1 mg/ml) and blasticidine S hydrochloride (15 μg/ml).
(§2) To induce receptor expression, cells were incubated with tetracycline (2 μg/mL) for 48 h. PBS with 5 mM EDTA (pH 7.4) was used to detach OTR and V1aR-expressing HEK293 cells from culture flasks. Harvested cells were centrifuged at 1200 g for 5 min and were resuspended in homogenization buffer (50 mM HEPES, 5 mM EDTA, 5 mM MgCl2; pH 7.4) prior to homogenization using an Ultra-Turrax homogeniser (IKA, Wilmington, N.C., USA). Homogenates were centrifuged three times for 30 min at 48.000 g, 4° C. for 30 min and membrane pellets resuspended in 50 mM Tris HCl, 5 mM MgCl2 (pH 7.4). A bicinchoninic acid assay was used according to the manufacturer's protocol (Bio-Rad, Hercules. Calif., USA) to measure final protein concentration. Membranes were stored at −80° C. until use in competition radioligand binding studies.
(§3) Reactions were incubated for 90 min at 4° C. to reach equilibrium, and terminated by rapid filtration over glass fibre filters (Whatman GF/A […]; Millipore, Darmstadt, Germany), and washing with ice-cold reaction buffer. Filters were dried, then incubated with Microscint 0 (Perkin Elmer) for 30 min before radioactivity was detected with a Microbeta2 2450 microplate-reader (Perkin Elmer). […] Specific binding in the presence of compounds was expressed as a percentage of specific binding in the presence of vehicle control. A sum-of-squares F-test was used to compare the goodness of fit of one-site, two-site and sigmoidal with variable hill slope binding models, and to calculate Ki's using Graphpad Prism (Graphpad Software, La Jolla, Calif., USA).

For data set [2], the target named is T1, oxytocin receptor (OXTR), hOTR. The data set is described as follows: IP1 accumulation assay, OTR-expressing HEK-293 cells (agonist and antagonist assessment). In kind it is cell-based. To be noted: for EC50 / EC50 (OXTR agonist potency, mean ± s.d.): agonist assessment; for EC50: IP1, 1 h; for IC50: antagonist assessment vs OT 30 nM (~EC70); for IC50 / EC50 (OXTR agonist potency, mean ± s.d.): IP1; for Emax: HEK293, read-out: OXTR Emax (% OXT); for OV function: ratio of OXTR functional potency to V1aR functional potency, 'OT only' = function at OXTR only. On the procedure:
as §1
(§4) OTR or V1aR-expressing HEK-293 cells were seeded onto poly-L-lysine (100 μg/ml)-coated 384-well plates at a density of 8.75×10^3 cells per well. Cells were incubated in tetracycline (2 μg/mL) for 48 h to induce receptor expression. Intracellular IP1 levels induced by activation of the Gq protein coupled to the OTR and V1aR was indexed using the HTRF IP-One kit (CisBio International, Bedford, Mass., USA), according to manufacturer's protocol. For agonist assessment, cells were incubated with logarithmically-spaced concentrations of compounds (1 nM-100 μM) for 1 h prior to the addition of Ab-Cryptate and IP1-d2 for 1 h. The contents of each well were transferred to a white-walled proxy plate (Perkin Elmer) and fluorescence read using a Pherastar Microplate reader (BMG Labtech, Cary, N.C., USA). For antagonist assessment, cells were incubated an ˜EC70 concentration of OT (30 nM) or AVP (25 nM) mixed with compounds (1 nM-100 μM) or vehicle control for 1 h. IP1 levels in the presence of compounds and OT or AVP were expressed as a percentage of levels seen with OT or AVP in the presence of vehicle control. Concentration response curves for OT and AVP were determined after 5 min incubation in drug or vehicle, and the data fitted using GraphPad PRISM to a 4-parameter logistic equation of the form y=Min+(Max−Min)/(1+10^((logEC50−X)*n)) where X is drug concentration and n is the H-ill slope. Data represent the mean±s.d. of at least 3 independent experiments, each in duplicate.

The target in data set [3] is T2, vasopressin 1a receptor (V1aR) (Homo sapiens, UniProt P37288).
T2 construct: expressed in transfected cells
The data set is described as follows: IP1 accumulation assay, V1aR-expressing HEK-293 cells (agonist and antagonist assessment). To be noted: for EC50: agonist assessment, IP1, 1 h; for IC50: antagonist assessment vs AVP 25 nM (~EC70), IP1. Type of data set: cell-based. On the procedure: Cells were subsequently maintained in 10% DMEM containing hygromycin (80 μg/ml), penicillin (100 U/ml), streptomycin (0.1 mg/ml) and blasticidine S hydrochloride (15 μg/ml).
as §4, with “Cells” for “OTR or V1aR-expressing HEK-293 cells were seeded onto poly-L-lysine (100 μg/ml)-coated 384-well plates at a density of 8.75×10^3 cells per well. Cells”, “For antagonist assessment, cells were incubated an ˜EC70 concentration of OT (30 nM) or AVP (25 nM) mixed with compounds (1 nM-100 μM) or vehicle control for 1 h.” left out

Data set [4] addresses T2, vasopressin 1a receptor (V1aR). The data set is described as follows: Competition radioligand binding, [3H]-vasopressin, V1aR-expressing HEK293 membranes. To be noted: [3H]-vasopressin 2 nM, 90 min 4 °C. On the procedure: as §1, §2, §3

T2 sequence (P37288 whole entry): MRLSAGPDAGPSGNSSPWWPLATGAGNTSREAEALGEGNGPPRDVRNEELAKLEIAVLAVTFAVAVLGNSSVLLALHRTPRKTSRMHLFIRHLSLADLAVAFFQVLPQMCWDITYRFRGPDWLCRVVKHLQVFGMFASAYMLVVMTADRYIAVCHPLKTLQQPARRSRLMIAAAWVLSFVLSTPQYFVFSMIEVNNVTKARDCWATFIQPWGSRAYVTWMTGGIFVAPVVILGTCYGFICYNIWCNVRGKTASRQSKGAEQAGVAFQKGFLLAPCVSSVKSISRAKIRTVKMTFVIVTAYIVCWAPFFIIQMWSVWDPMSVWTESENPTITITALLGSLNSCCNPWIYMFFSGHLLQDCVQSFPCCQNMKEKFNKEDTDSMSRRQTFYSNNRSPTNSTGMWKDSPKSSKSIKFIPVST

Usually melting point stands for the temperature of the solid-liquid transition. A word on the Ki: it is the dissociation constant of the complex between target and ligand, obtained from inhibition or displacement. Broadly, the EC50 is the midpoint of the concentration-response curve. A low value points to a more potent agent. As usually defined, the IC50 is the concentration that gives 50% inhibition. Higher therefore signals a need for much substance. `Cn1ncc2c1Nc1ccccc1N(S(=O)(=O)c1ccc(Cl)cc1)C2` [WJ0633, 5-((4-Chlorophenyl)sulfonyl)-1-methyl-1,4,5,10-tetrahydrobenzo[b]pyrazolo[3,4-e][1,4]diazepine] registered a melting point of 206 to 208 °C. Further, in data set [1], the Ki was above 10000 nM. In data set [2], this compound had an EC50 above 10000 nM and a half-maximal inhibitory concentration (IC50) above 10000 nM. Also, in data set [3], the half-maximal effective concentration (EC50) was above 10000 nM and the IC50 was above 10000 nM. This compound also registered a Ki in data set [4] above 10000 nM.

`Cn1ncc2c1Nc1ccccc1N(S(=O)(=O)c1ccc(C(F)(F)F)cc1)C2` [WJ0639, 1-Methyl-5-((4-(trifluoromethyl)phenyl)sulfonyl)-1,4,5,10-tetrahydrobenzo[b]pyrazolo[3,4-e][1,4]diazepine] yielded a melting point of 203 to 205 °C. Also, in data set [1], the Ki is above 10000 nM. In data set [2], this compound showed an EC50 above 10000 nM and a 50% inhibitory concentration (IC50) above 10000 nM. In data set [3], this compound displayed a concentration for a half-maximal effect (EC50) above 10000 nM and a half-maximal inhibitory concentration (IC50) above 10000 nM. For the same compound, the inhibitory constant (Ki) in data set [4] is above 10000 nM.

In turn, `Cc1ccc(S(=O)(=O)N2Cc3cnn(C)c3Nc3ccccc32)cc1` [WJ0641, 1-Methyl-5-tosyl-1,4,5,10-tetrahydrobenzo[b]pyrazolo[3,4-e][1,4]diazepine] had a melting point of 184 to 186 °C. Moreover, the Ki in data set [1] was above 10000 nM. Besides, in data set [2], the half-maximal effective concentration (EC50) is above 10000 nM and the IC50 was above 10000 nM. In data set [3], this compound registered an EC50 above 10000 nM and an IC50 above 10000 nM. The compound also gave a Ki in data set [4] above 10000 nM.

As usually defined, the Emax is the size of the effect at its maximum, as opposed to the concentration needed. For `Cc1ccc(C(=O)N2Cc3cnn(C)c3Nc3ccccc32)cc1` [WJ0653, (1-Methyl-4,10-dihydrobenzo[b]pyrazolo[3,4-e][1,4]diazepin-5 (1H)-yl)(p-tolyl)methanone], the melting point was 265 °C (dec.). This compound also yielded an inhibition constant Ki in data set [1] of 149 ± 43.4 nM. Moreover, in data set [2], the maximal response (Emax) was determined as 9.54%; the “EC50 (OXTR agonist potency, mean ± s.d.)” value is 238.8 ± 38.7 nM; the EC50 turned out to be 85.3 ± 26.5 nM; the OV function turned out to be 0.12. In data set [3], this compound had an EC50 above 10000 nM and a half-maximal inhibitory concentration (IC50) of 710 ± 267 nM. The Ki in data set [4] came out at 12.4 ± 2.4 nM.

`COc1cccc(C(=O)N2Cc3cnn(C)c3Nc3ccccc32)c1` [WJ0657, (3-Methoxyphenyl)(1-methyl-4,10-dihydrobenzo[b]pyrazolo[3,4-e][1,4]diazepin-5 (1H)-yl)methanone]: the melting point is 267 to 269 °C (dec.). Further, in data set [1], the affinity, expressed as Ki, was 842 ± 288 nM. Further, in data set [2], the Emax was found to be 4.99%; the “EC50 (OXTR agonist potency, mean ± s.d.)” value is 124.9 ± 16.8 nM; the response was half-maximal at 338 ± 76.5 nM (EC50); the OV function came to 0.45. In data set [3], this compound came in with an EC50 above 10000 nM and an IC50 of 746 ± 158 nM. Further, in data set [4], affinity was put at a Ki of 108 ± 23.5 nM.

On to `COc1ccc(C(=O)N2Cc3cnn(C)c3Nc3ccccc32)cc1` [WJ0661, (4-Methoxyphenyl)(1-methyl-4,10-dihydrobenzo[b]pyrazolo[3,4-e][1,4]diazepin-5 (1H)-yl)methanone], for which the melting point is 296 to 298 °C (dec.). Besides, the Ki in data set [1] turned out to be 272 ± 87.6 nM. In data set [2], the Emax turned out to be 8.14%; the “EC50 (OXTR agonist potency, mean ± s.d.)” value is on record as 203.8 ± 54.8 nM; the half-maximal effective concentration (EC50) was found to be 197 ± 60.3 nM; the OV function is 0.43. Besides, in data set [3], the half-maximal effective concentration (EC50) is above 10000 nM and the IC50 is 462 ± 136 nM. In data set [4], affinity was put at a Ki of 24 ± 3.4 nM.

`Cn1ncc2c1Nc1ccccc1N(C(=O)c1ccc(C(F)(F)F)cc1)C2` [WJ0677, (1-Methyl-4,10-dihydrobenzo[b]pyrazolo[3,4-e][1,4]diazepin-5 (1H)-yl)(4-(trifluoromethyl)phenyl)methanone] displayed a melting point of 204 to 206 °C. The compound also showed a Ki in data set [1] of 560 ± 111 nM. In data set [2], the maximal response (Emax) worked out at 7.72%; the “EC50 (OXTR agonist potency, mean ± s.d.)” value was determined as 193.3 ± 11.3 nM; the EC50 was 179 ± 37.8 nM. In data set [3], this compound came in with a half-maximal effective concentration (EC50) above 10000 nM and an IC50 above 10000 nM. The compound further yielded a Ki in data set [4] of 96.9 ± 33.5 nM.

In the case of `Cn1ncc2c1Nc1ccccc1N(C(=O)c1cc(F)cc(F)c1)C2` [WJ0681, (3,5-Difluorophenyl)(1-methyl-4,10-dihydrobenzo[b]pyrazolo[3,4-e][1,4]diazepin-5 (1H)-yl)methanone], the melting point is 290 to 292 °C (dec.). For the same compound, affinity in data set [1] was put at a Ki of 755 ± 164 nM. Moreover, in data set [2], the Emax was 10.9%; the “EC50 (OXTR agonist potency, mean ± s.d.)” value is given as 272.7 ± 69.4 nM; the midpoint of the response, the EC50, lay at 521 ± 35.2 nM; the OV function stood at 0.24. For the same compound, in data set [3], the EC50 was above 10000 nM and the IC50 was 2210 ± 406 nM. The compound also registered a Ki in data set [4] of 47.8 ± 9.4 nM.

Regarding `Cc1ccc(C(=O)N2Cc3cnn(C)c3Nc3ccccc32)cc1F` [WJ0683, (3-Fluoro-4-methylphenyl)(1-methyl-4,10-dihydrobenzo[b]pyrazolo[3,4-e][1,4]diazepin-5 (1H)-yl)methanone], the melting point lay in the range of 235 to 237 °C. The inhibition constant Ki in data set [1] stood at 103 ± 31 nM. In addition, in data set [2], the Emax came to 11.3%; the “EC50 (OXTR agonist potency, mean ± s.d.)” value is 283.7 ± 22.4 nM; it took 96.2 ± 22.9 nM to reach a half-maximal effect (EC50); the OV function is reported as 0.085. In addition, in data set [3], the EC50 is above 10000 nM and the IC50 was found to be 1140 ± 165 nM. Further, the Ki in data set [4] turned out to be 7.8 ± 0.9 nM.
